Source: ChEMBL document CHEMBL1201862, “PubChem BioAssay data set” (2004)
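Growth conditions: 96-well plates. Treatment: test compound, 48 hours, 5 concentrations. Analysis: linear interpolation between bracketing concentrations; unreached endpoints set to highest concentration. The concentration for 50% growth inhibition is given as GI50.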 Calls of active or inactive are those of the source. Rule as the data show it: active = GI50 up to about 1.1 µM and inactive = higher.

Tests used:
Assay in all cases: DTP human tumour cell line panel, 48 h
OVCAR-8 = test system: OVCAR-8
SK-MEL-5 = test system: SK-MEL-5
EKVX = test system: EKVX
CCRF-CEM = test system: CCRF-CEM
NCI-H522 = test system: NCI-H522
MDA-MB-435 = test system: MDA-MB-435
HT-29 = test system: HT-29
TK-10 = test system: TK-10
UACC-62 = test system: UACC-62
SF-295 = test system: SF-295
PC-3 = test system: PC-3
SF-268 = test system: SF-268
SN12C = test system: SN12C
SNB-75 = test system: SNB-75
SNB-19 = test system: SNB-19
IGROV-1 = test system: IGROV-1
OVCAR-5 = test system: OVCAR-5
DU-145 = test system: DU-145
NCI-H23 = test system: NCI-H23
SK-MEL-2 = test system: SK-MEL-2
SK-OV-3 = test system: SK-OV-3
OVCAR-4 = test system: OVCAR-4
HCC 2998 = test system: HCC 2998
Hs-578T = test system: Hs-578T
RXF 393 = test system: RXF 393
HCT-15 = test system: HCT-15
SK-MEL-28 = test system: SK-MEL-28
SW-620 = test system: SW-620
786-0 = test system: 786-0
T47D = test system: T47D
A498 = test system: A498
K562 = test system: K562
ACHN = test system: ACHN
NCI/ADR-RES = test system: NCI/ADR-RES
MOLT-4 = test system: MOLT-4
A549 = test system: A549
MDA-N = test system: MDA-N
U-251 = test system: U-251
NCI-H226 = test system: NCI-H226
SF-539 = test system: SF-539
HOP-92 = test system: HOP-92
RPMI-8226 = test system: RPMI-8226
KM12 = test system: KM12
HOP-62 = test system: HOP-62
HCT-116 = test system: HCT-116
COLO 205 = test system: COLO 205
NCI-H460 = test system: NCI-H460
UACC-257 = test system: UACC-257
LOX IMVI = test system: LOX IMVI
M14 = test system: M14
MCF7 = test system: MCF7
HL-60 = test system: HL-60
MDA-MB-231 = test system: MDA-MB-231
UO-31 = test system: UO-31
OVCAR-3 = test system: OVCAR-3
SR = test system: SR
Malme-3M = test system: Malme-3M

CC(=O)Oc1c(C)cc2c(c1C)C(C)(C)CN2C(=O)C(C)(C)C
GI50 (OVCAR-8): > 100 µM (inactive)
GI50 (SK-MEL-5): 42.3 µM (inactive)
GI50 (EKVX): > 100 µM (inactive)
GI50 (CCRF-CEM): 65.9 µM (inactive)
GI50 (NCI-H522): > 100 µM (inactive)
GI50 (MDA-MB-435): 77.8 µM (inactive)
GI50 (HT-29): 33.1 µM (inactive)
GI50 (TK-10): > 100 µM (inactive)
GI50 (UACC-62): > 100 µM (inactive)
GI50 (SF-295): > 100 µM (inactive)
GI50 (PC-3): 35.1 µM (inactive)
GI50 (SF-268): > 100 µM (inactive)
GI50 (SN12C): > 100 µM (inactive)
GI50 (SNB-75): 0.504 µM (active)
GI50 (SNB-19): > 100 µM (inactive)
GI50 (IGROV-1): > 100 µM (inactive)
GI50 (OVCAR-5): > 100 µM (inactive)
GI50 (DU-145): > 100 µM (inactive)
GI50 (NCI-H23): 81.1 µM (inactive)
GI50 (SK-MEL-2): > 100 µM (inactive)
GI50 (SK-OV-3): > 100 µM (inactive)
GI50 (OVCAR-4): 71.8 µM (inactive)
GI50 (HCC 2998): > 100 µM (inactive)
GI50 (Hs-578T): > 100 µM (inactive)
GI50 (RXF 393): 84.9 µM (inactive)
GI50 (HCT-15): > 100 µM
GI50 (SK-MEL-28): > 100 µM (inactive)
GI50 (SW-620): > 100 µM (inactive)
GI50 (786-0): > 100 µM (inactive)
GI50 (T47D): 31.6 µM (inactive)
GI50 (A498): 55.6 µM (inactive)
GI50 (K562): 51.9 µM (inactive)
GI50 (ACHN): > 100 µM (inactive)
GI50 (NCI/ADR-RES): 45.3 µM (inactive)
GI50 (MOLT-4): 25.4 µM (inactive)
GI50 (A549): 83.8 µM (inactive)
GI50 (MDA-N): > 100 µM (inactive)
GI50 (U-251): > 100 µM (inactive)
GI50 (NCI-H226): 38.5 µM (inactive)
GI50 (SF-539): > 100 µM (inactive)
GI50 (HOP-92): 20.1 µM (inactive)
GI50 (RPMI-8226): 53.8 µM (inactive)
GI50 (KM12): > 100 µM (inactive)
GI50 (HOP-62): > 100 µM (inactive)
GI50 (HCT-116): 67.9 µM (inactive)
GI50 (COLO 205): 58.1 µM (inactive)
GI50 (NCI-H460): > 100 µM (inactive)
GI50 (UACC-257): > 100 µM (inactive)
GI50 (LOX IMVI): > 100 µM (inactive)
GI50 (M14): 65.9 µM (inactive)
GI50 (MCF7): > 100 µM (inactive)
GI50 (HL-60): 63.8 µM (inactive)
GI50 (MDA-MB-231): > 100 µM (inactive)
GI50 (UO-31): 41.8 µM (inactive)
GI50 (OVCAR-3): 25.2 µM (inactive)

CCCCCCCCCCCCCCCCCCOC[C@H](COP(=O)(O)O[C@H]1[C@H](O)[C@@H](O)[C@H](O)C[C@H]1O)OC
GI50 (SNB-75): 13 µM (inactive)
GI50 (SR): 12.1 µM (inactive)
GI50 (RPMI-8226): 11.8 µM (inactive)

N#Cc1cc(C#N)c(Cl)nc1N
GI50 (OVCAR-8): > 10 µM (inactive)
GI50 (SK-MEL-5): > 10 µM (inactive)
GI50 (EKVX): > 10 µM (inactive)
GI50 (CCRF-CEM): > 10 µM (inactive)
GI50 (MDA-MB-435): > 10 µM (inactive)
GI50 (HT-29): > 10 µM (inactive)
GI50 (TK-10): > 10 µM (inactive)
GI50 (UACC-62): > 10 µM (inactive)
GI50 (SF-295): > 10 µM (inactive)
GI50 (PC-3): > 10 µM (inactive)
GI50 (SF-268): > 10 µM (inactive)
GI50 (SN12C): > 10 µM (inactive)
GI50 (SNB-75): > 10 µM (inactive)
GI50 (SR): > 10 µM (inactive)
GI50 (SNB-19): > 10 µM (inactive)
GI50 (IGROV-1): > 10 µM (inactive)
GI50 (NCI-H23): > 10 µM (inactive)
GI50 (SK-MEL-2): > 10 µM (inactive)
GI50 (SK-OV-3): > 10 µM (inactive)
GI50 (OVCAR-4): > 10 µM (inactive)
GI50 (HCC 2998): > 10 µM (inactive)
GI50 (Hs-578T): > 10 µM (inactive)
GI50 (RXF 393): > 10 µM (inactive)
GI50 (HCT-15): > 10 µM
GI50 (SK-MEL-28): > 10 µM (inactive)
GI50 (SW-620): > 10 µM (inactive)
GI50 (786-0): > 10 µM (inactive)
GI50 (T47D): > 10 µM (inactive)
GI50 (K562): 7.53 µM (inactive)
GI50 (ACHN): > 10 µM (inactive)
GI50 (NCI/ADR-RES): > 10 µM (inactive)
GI50 (MOLT-4): > 10 µM (inactive)
GI50 (A549): > 10 µM (inactive)
GI50 (MDA-N): > 10 µM (inactive)
GI50 (U-251): > 10 µM (inactive)
GI50 (NCI-H226): > 10 µM (inactive)
GI50 (SF-539): > 10 µM (inactive)
GI50 (HOP-92): > 10 µM (inactive)
GI50 (RPMI-8226): > 10 µM (inactive)
GI50 (KM12): > 10 µM (inactive)
GI50 (HOP-62): > 10 µM (inactive)
GI50 (HCT-116): > 10 µM (inactive)
GI50 (COLO 205): > 10 µM (inactive)
GI50 (Malme-3M): > 10 µM (inactive)
GI50 (NCI-H460): > 10 µM (inactive)
GI50 (LOX IMVI): > 10 µM (inactive)
GI50 (MCF7): > 10 µM (inactive)
GI50 (HL-60): 3.48 µM (inactive)
GI50 (UO-31): 0.0323 µM (active)
GI50 (OVCAR-3): > 10 µM (inactive)

N=C(N)SCCc1ccccn1
GI50 (OVCAR-8): > 100 µM (inactive)
GI50 (SK-MEL-5): > 100 µM (inactive)
GI50 (EKVX): > 100 µM (inactive)
GI50 (CCRF-CEM): > 100 µM (inactive)
GI50 (NCI-H522): > 100 µM (inactive)
GI50 (UACC-62): > 100 µM (inactive)
GI50 (SF-268): > 100 µM (inactive)
GI50 (SN12C): > 100 µM (inactive)
GI50 (SNB-19): > 100 µM (inactive)
GI50 (IGROV-1): > 100 µM (inactive)
GI50 (OVCAR-5): > 100 µM (inactive)
GI50 (SK-MEL-2): > 100 µM (inactive)
GI50 (SK-OV-3): > 100 µM (inactive)
GI50 (OVCAR-4): > 100 µM (inactive)
GI50 (RXF 393): > 100 µM (inactive)
GI50 (HCT-15): > 100 µM
GI50 (SK-MEL-28): > 100 µM (inactive)
GI50 (SW-620): > 100 µM (inactive)
GI50 (786-0): > 100 µM (inactive)
GI50 (T47D): > 100 µM (inactive)
GI50 (ACHN): > 100 µM (inactive)
GI50 (MOLT-4): > 100 µM (inactive)
GI50 (A549): > 100 µM (inactive)
GI50 (U-251): > 100 µM (inactive)
GI50 (NCI-H226): > 100 µM (inactive)
GI50 (SF-539): > 100 µM (inactive)
GI50 (HOP-92): > 100 µM (inactive)
GI50 (RPMI-8226): > 100 µM (inactive)
GI50 (KM12): > 100 µM (inactive)
GI50 (HOP-62): > 100 µM (inactive)
GI50 (HCT-116): > 100 µM (inactive)
GI50 (COLO 205): > 100 µM (inactive)
GI50 (Malme-3M): > 100 µM (inactive)
GI50 (NCI-H460): > 100 µM (inactive)
GI50 (LOX IMVI): > 100 µM (inactive)
GI50 (M14): > 100 µM (inactive)
GI50 (HL-60): > 100 µM (inactive)
GI50 (UO-31): > 100 µM (inactive)
GI50 (OVCAR-3): > 100 µM (inactive)
